Reference: ChEMBL document CHEMBL5465560, “Selectivity Literature for EUbOPEN Chemogenomic Library” (2024)

Columns and labels:
[1] = target: T1, Calcium/calmodulin-dependent protein kinase type IV (Homo sapiens) (UniProt Q16566); assay: Selectivity interaction (ActivX KiNativ screen (kinase selectivity in THP-1 cell lysates)) EUB0000639a CAMK4; assay type: subcellular; settings: lysate
T1 sequence (whole entry): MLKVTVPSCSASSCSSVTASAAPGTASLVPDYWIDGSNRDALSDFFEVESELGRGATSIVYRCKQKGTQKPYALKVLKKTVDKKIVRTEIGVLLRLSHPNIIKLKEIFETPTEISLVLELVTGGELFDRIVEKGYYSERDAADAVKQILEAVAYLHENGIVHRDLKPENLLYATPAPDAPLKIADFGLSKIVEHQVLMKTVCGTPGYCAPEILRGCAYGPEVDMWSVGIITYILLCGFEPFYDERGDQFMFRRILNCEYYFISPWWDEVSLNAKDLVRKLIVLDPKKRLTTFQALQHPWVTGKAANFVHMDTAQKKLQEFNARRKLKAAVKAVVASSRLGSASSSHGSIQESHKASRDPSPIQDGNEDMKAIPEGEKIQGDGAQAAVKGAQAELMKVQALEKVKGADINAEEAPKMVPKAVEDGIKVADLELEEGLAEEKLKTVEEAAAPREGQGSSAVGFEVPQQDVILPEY

[2] = target: T2, Serine/threonine-protein kinase Nek8 (Homo sapiens) (UniProt Q86SG6); assay: Selectivity interaction (ActivX KiNativ screen (kinase selectivity in THP-1 cell lysates)) EUB0000639a NEK8; assay type: subcellular; settings: lysate
T2 sequence (whole entry): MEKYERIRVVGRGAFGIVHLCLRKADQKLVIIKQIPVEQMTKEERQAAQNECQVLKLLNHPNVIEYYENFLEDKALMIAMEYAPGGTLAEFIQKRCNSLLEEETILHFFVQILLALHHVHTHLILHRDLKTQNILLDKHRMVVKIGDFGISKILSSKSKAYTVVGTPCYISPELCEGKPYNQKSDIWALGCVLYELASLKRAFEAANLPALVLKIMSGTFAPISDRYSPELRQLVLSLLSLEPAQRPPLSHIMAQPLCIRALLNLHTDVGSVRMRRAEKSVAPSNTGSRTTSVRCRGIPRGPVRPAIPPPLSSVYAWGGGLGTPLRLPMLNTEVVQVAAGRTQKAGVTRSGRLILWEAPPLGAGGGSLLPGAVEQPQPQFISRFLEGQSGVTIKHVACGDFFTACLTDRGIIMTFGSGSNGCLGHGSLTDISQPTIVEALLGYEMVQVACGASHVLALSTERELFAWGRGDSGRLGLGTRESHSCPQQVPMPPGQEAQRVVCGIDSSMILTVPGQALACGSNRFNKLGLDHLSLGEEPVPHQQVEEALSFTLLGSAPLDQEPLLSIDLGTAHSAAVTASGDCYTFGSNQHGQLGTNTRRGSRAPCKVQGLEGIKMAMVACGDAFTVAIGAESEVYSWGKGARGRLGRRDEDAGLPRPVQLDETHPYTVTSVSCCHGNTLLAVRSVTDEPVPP

[3] = target: T3, STE20-related kinase adapter protein alpha (Homo sapiens) (UniProt Q7RTN6); assay: Selectivity interaction (ActivX KiNativ screen (kinase selectivity in THP-1 cell lysates)) EUB0000639a STRADA; assay type: subcellular; settings: lysate
T3 sequence (whole entry): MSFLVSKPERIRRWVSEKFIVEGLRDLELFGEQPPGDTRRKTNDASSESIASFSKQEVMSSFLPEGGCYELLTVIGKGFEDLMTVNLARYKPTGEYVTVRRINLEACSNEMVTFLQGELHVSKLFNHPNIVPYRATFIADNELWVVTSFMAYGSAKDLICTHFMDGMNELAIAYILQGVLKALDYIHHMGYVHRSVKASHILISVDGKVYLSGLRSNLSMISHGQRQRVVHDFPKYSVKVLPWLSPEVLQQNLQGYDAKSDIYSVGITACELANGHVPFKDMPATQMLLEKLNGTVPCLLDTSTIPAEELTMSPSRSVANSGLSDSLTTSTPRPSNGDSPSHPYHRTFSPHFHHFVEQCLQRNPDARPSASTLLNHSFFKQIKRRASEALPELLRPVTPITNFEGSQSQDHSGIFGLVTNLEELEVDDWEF

[4] = target: T4, Serine/threonine-protein kinase LATS2 (Homo sapiens) (UniProt Q9NRM7); assay: Selectivity interaction (KinomeScan (DiscoverX)) EUB0000229b LATS2; settings: at 10 µM
T4 sequence (whole entry): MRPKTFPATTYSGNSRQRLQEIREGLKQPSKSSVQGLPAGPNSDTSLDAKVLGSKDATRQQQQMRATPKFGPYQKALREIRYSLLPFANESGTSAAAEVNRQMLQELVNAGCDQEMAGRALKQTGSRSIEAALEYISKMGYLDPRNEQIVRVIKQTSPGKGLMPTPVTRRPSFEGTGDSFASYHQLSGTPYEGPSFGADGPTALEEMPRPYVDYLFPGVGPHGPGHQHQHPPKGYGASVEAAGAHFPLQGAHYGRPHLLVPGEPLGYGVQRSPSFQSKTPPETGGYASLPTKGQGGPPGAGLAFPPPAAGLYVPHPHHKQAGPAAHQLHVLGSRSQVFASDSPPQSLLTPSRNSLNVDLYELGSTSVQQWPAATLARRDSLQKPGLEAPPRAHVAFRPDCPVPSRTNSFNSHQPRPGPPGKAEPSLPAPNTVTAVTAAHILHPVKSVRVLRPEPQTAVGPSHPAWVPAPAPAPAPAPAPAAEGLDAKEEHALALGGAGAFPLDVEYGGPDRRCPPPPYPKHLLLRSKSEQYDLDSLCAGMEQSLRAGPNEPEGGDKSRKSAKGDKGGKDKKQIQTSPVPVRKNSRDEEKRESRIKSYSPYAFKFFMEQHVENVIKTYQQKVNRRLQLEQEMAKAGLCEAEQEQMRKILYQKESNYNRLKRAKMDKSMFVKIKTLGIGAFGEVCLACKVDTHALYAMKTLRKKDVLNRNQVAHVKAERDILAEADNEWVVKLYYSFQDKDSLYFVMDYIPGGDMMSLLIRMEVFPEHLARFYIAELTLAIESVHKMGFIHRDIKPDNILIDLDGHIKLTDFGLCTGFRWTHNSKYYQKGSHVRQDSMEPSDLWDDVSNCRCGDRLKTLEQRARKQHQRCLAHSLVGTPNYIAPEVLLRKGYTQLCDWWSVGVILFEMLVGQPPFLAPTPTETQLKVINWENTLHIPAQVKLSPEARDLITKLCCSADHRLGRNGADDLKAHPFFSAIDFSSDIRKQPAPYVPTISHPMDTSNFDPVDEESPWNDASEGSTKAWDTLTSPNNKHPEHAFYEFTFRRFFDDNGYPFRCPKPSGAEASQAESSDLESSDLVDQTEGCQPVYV

| % of inhibition ([1]; at 0.01 µM) | % of inhibition ([1]; at 0.04 µM) | % of inhibition ([1]; at 0.2 µM) | % of inhibition ([1]; at 1 µM) | % of inhibition ([1]; at 5 µM) | % of inhibition ([2]; at 0.01 µM) | % of inhibition ([2]; at 0.04 µM) | % of inhibition ([2]; at 0.2 µM) | % of inhibition ([2]; at 1 µM) | % of inhibition ([2]; at 5 µM) | % of inhibition ([3]; at 0.01 µM) | % of inhibition ([3]; at 0.04 µM) | % of inhibition ([3]; at 0.2 µM) | % of inhibition ([3]; at 1 µM) | % of inhibition ([3]; at 5 µM) | SMILES | % binding [4] |
| --- | --- | --- | --- | --- | --- | --- | --- | --- | --- | --- | --- | --- | --- | --- | --- | --- |
| 25.8% | 19.1% | -4.7% | 11.2% | 18.6% | -12.6% | 9.8% | -2.6% | 3.4% | -20.5% | -13.1% | 4.6% | -11.6% | 5.4% | 3.6% | CC[C@@H]1[C@H](F)C(=O)N[C@@H]1COc1nccc2cc(C(N)=O)c(OC)cc12 [ZIMLOVISERTIB] |  |
|  |  |  |  |  |  |  |  |  |  |  |  |  |  |  | COc1cc(N(C)c2ccnc3ccc(C(F)(F)F)cc23)cc(OC)c1OC | 89% |
